Data set [1] relates to Karpas-299, MOLT-4, Raji and RPMI-8226 cells. Kind of data set: In vitro cytotoxicity, whole CD5 cell panel. Conditions: for IC50: Homo sapiens. From the text: (§1) All tumor cell lines used in this study were obtained from the American Type Culture Collection (ATCC), unless otherwise indicated; BT-474 (ATCC HTB-20, Breast Ductal Carcinoma), SK-BR-3 (ATCC HTB-30, Breast Adenocarcinoma) and HCC-1954 (ATCC CRL-2338, Breast Ductal Carcinoma), all HER2+; MDA-MB-231 (ATCC HTB-26, Breast Adenocarcinoma) and MCF-7 (ATCC HTB-22 Breast Adenocarcinoma, pleural effusion), all HER2-; SK-OV-3 (ATCC HTB-77, Ovary Adenocarcinoma), HER2+; NB-4 (Acute Promyelocytic Leukemia, APL, CD13+, M. Lanotte et al. (1991) NB4, a maturation inducible cell line with t(15;17) marker isolated from a human acute promyelocytic leukemia (M3). Blood 77, 1080-1086), (CD13+) and U937 (ATCC CRL-1 593.2, Histiocytic Lymphoma, CD13+ and CD4+); Raji (ATCC CCL-86, Burkitt's Lymphoma) (CD13−, CD20+, CD5−, and CD4−); RPMI-8226 (ATCC CRM-CCL-155, Multiple Myeloma) (CD13−, CD20−, CD5− and CD4−); Karpas-299 (DSMZ ACC-31, Non-Hodgkin's Lymphoma) (CD20−, CD5+, and CD4+); MOLT-4 (ATCC CRL-1 582, Acute Lymphoblastic Leukemia, CD5+). In addition, the two Raji cell (ATCC CCL-86, Burkitt's Lymphoma) clones used in this study Raji-clone #10 (high CD5 expression) and Raji-clone18 (null CD5 expression), were provided by Dr. Juan M. Zapata (Instituto de Investigaciones Biomedicas “Alberto Sols”, CSIC-UAM, Madrid, Spain). Cells were maintained at 37° C., 5% CO 2 and 95% humidity in Dulbecco's Modified Eagle's Medium (DMEM) (for MCF and MDA-MB-231 cells), RPMI-1640 (for SK-BR-3, HCC-1954, NB-4, U937, Raji, RPMI-8226, Karpas-299, MOLT-4, Raji-clone #10 and Raji-clone #18 cells), RPMI-1640+1% ITS (for BT-474 cells) or McCOyS (for SK-OV-3 cells), all media supplemented with 10% Fetal Calf Serum (FCS) and 100 units/mL penicillin and streptomycin.
(§2) For suspension cells: A standard metabolic assay using MTT (3-(4,5-Dimethylthiazol-2-yl)-2,5-diphenyltetrazolium bromide) was adapted for quantitative measurement of cell growth and cytotoxicity, as described in T. Mosmann (1983) Rapid colorimetric assay for cellular growth and survival: Application to proliferation and cytotoxicity assays. J. Immunol. Meth., 65, 55-63. Briefly, MTT solution was added to the cell cultures at a final concentration of 0.5 mg/mL, and incubated for 1 to 4 hours at 37° C. until formazan crystals are formed. Culture medium is carefully removed from the cell cultures and formazan crystals resuspended in 100 μl DMSO. After mixing to assure solubilization, the quantity of formazan (presumably directly proportional to the number of viable cells) is measured by recording changes in absorbance at 570 nm using a plate reading spectrophotometer. Cell survival was expressed as percentage of control, untreated cell survival.
(§3) The IC50 value refers to the concentration of compound inducing a 50% of cell death as compared to the control cell survival.
The in vitro cytotoxic activity of ADC14 along with the parent cytotoxic Compounds 1, 4, and 40, was evaluated against different human cancer cell lines expressing or not the CD5 antigen, including Karpas-299 and MOLT-4 (both CD5+); Raji and RPMI-8226 (both CD5−). Standard dose-response (DR) curves for 72 hours were performed.

Data set [2] concerns Raji-clone #18 (null CD5 expression). Description: In vitro cytotoxicity, MTT assay, 72 h dose-response. Type of data set: cell-based. The following applies: Homo sapiens.
Procedure: (§5) Briefly, MTT solution was added to the cell cultures at a final concentration of 0.5 mg/mL, and incubated for 1 to 4 hours at 37° C. until formazan crystals are formed. Culture medium is carefully removed from the cell cultures and formazan crystals resuspended in 100 μl DMSO. […] Cell survival was expressed as percentage of control, untreated cell survival.
Data set [3] concerns RPMI-8226 cells. The data set is described as above. The data set is classed as cell-based, human. The following applies: CD13−, CD20−, CD5−, CD4−.
Procedure: as §5
In data set [4] the test system is U937 cells. The data set is described as above. Type of data set: cell-based, human. The following applies: CD13+, CD4+.
Procedure: as §5
Data set [5] concerns Raji-clone #10 (high CD5 expression). The data set is described as above. Type of data set: cell-based. The following applies: Homo sapiens.
Procedure: as §5
The subject of data set [6] is MOLT-4 cells. Described as above. Type of data set: cell-based. Conditions: Homo sapiens, CD5+.
Procedure: as §5
The test system of data set [7] is Karpas-299, U937, Raji and RPMI-8226 cells. Kind of data set: In vitro cytotoxicity, whole CD4 cell panel. Conditions: Homo sapiens.
Text: as §1, §2, §3
The in vitro cytotoxic activity of ADC16 along with the parent cytotoxic Compounds 1, 4, and 40, was evaluated against different human cancer cell lines expressing or not the CD4 antigen, including Karpas-299 and U937 (both CD4+); Raji and RPMI-8226 (both CD4−). Standard dose-response (DR) curves for 72 hours were performed.

Data set [8] has as its system Karpas-299 cells. Description: In vitro cytotoxicity, MTT assay, 72 h dose-response. Type of data set: cell-based, human. The following applies: CD20−, CD5+, CD4+. In general terms: Tetrazolium dyes change colour on reduction, which living cells bring about.
Procedure: as §5
In data set [9] the test system is MDA-MB-231 cells. Description: In vitro cytotoxicity, SRB assay, 72 h dose-response. Type of data set: cell-based. The following applies: Homo sapiens, MDA-MB-231, 72 h. From the text:
(§4) Nature Protocols, 1, 1112-1 116.
(In general: In SRB staining, fixed cells bind dye roughly in proportion to their protein.)

The subject of data set [10] is MCF-7 cells. The description is as above. Type of data set: cell-based. The following applies: Homo sapiens, MCF7, 72 h.
Text: as §4

In data set [11] the test system is Raji, RPMI-8226 and Karpas-299 cells. Kind of data set: In vitro cytotoxicity, whole CD20 cell panel. Conditions: Homo sapiens.
Text: as §1, §2, §3
The in vitro cytotoxic activity of ADC12 along with the parent cytotoxic Compounds 1, 4, and 40, was evaluated was assayed against different human cancer cell lines expressing or not the CD20 antigen, including Raji (CD20 positive cells); RPMI-8226 and Karpas-299 (CD20 negative cells). Standard dose-response (DR) curves for 72 hours were performed.

[12] abbreviates: read-out: IC50 values across the different cell lines tested (range).
Where [13] appears, read: read-out: mean IC50 value across the whole cell panel.
Setting [14] is: Homo sapiens, RPMI-8226, 72 h, read-out: IC50.
Setting [15] is: Homo sapiens, KARPAS-299, 72 h, read-out: IC50.

≈ marks a conversion by molar mass, not a printed value. Where “and” joins values, the source holds several entries; their conditions need not be identical. Equal entries are not always repeated. Where two headings read alike, the source gives them in different places.

Broadly, the IC50 is the concentration that inhibits the measured activity by half. Turning to `COC1=CC[C@@H]([C@@H](C)/C=C(C)/C=C\C=C/C(=O)N[C@H](C(=O)N/C=C\C[C@H](C/C=C(\C)Cl)OC(=O)NCCCNC(=O)CCCCCN2C(=O)C=CC2=O)C(C)(C)C)OC1=O` [Compound 1], the IC50 in data set [1] (setting [12]) is 1.8 to 11 ng/mL (≈ 2.1 to 12.8 nM); in data set [1] (setting [13]) it was 0.0046 µg/mL and 5.3 nM; in data set [2] (C#18 (null CD5)), 0.038 µg/mL and 44.4 nM; in [2] (clone #18, CD5 null), 44 nM; in data set [3] (setting [14]), 0.0025 µg/mL and 2.92 nM; in data set [4] (Homo sapiens, U-937, 72 h, read-out: IC50) it was 0.00165 µg/mL and 1.93 nM. Besides, the IC50 in [5] (C#10 (high CD5)) was 0.0029 µg/mL and 3.39 nM; in data set [5] (clone #10, CD5 expressing), 3.4 nM; in data set [6] it was 0.00335 µg/mL and 3.91 nM; in data set [7] (setting [12]), 0.0015 µg/mL to 0.0073 µg/mL and 1.7 nM to 8.6 nM; in data set [7] (setting [13]) it was 0.0034 µg/mL and 3.9 nM; in data set [8] (setting [15]), 0.0019 µg/mL and 2.22 nM. The half-inhibitory concentration (IC50) is 0.0028 µg/mL and 3.27 nM in data set [9] (HER2−, 72 h, read-out: IC50); 0.0037 µg/mL and 4.32 nM in [10] (HER2−, 72 h, read-out: IC50); 0.0016 µg/mL to 0.0028 µg/mL and 1.9 nM to 3.3 nM in data set [11] (setting [12]); 0.0021 µg/mL and 2.5 nM in data set [11] (setting [13]).
As a reminder, the IC20 is the point of the concentration-response curve where the effect stands at 20%. High values mean a need for much substance, low ones an effect from little substance. With `COC1=CC[C@@H]([C@@H](C)/C=C(C)/C=C\C=C/C(=O)N[C@H](C(=O)N/C=C\C[C@H](C/C=C(\C)Cl)OC(=O)NCCCN)C(C)(C)C)OC1=O` [Compound 4], the IC50 was 0.00063 µg/mL to 0.0027 µg/mL and 0.95 nM to 4.1 nM in [1] (setting [12]); 0.0013 µg/mL and 1.9 nM in data set [1] (setting [13]); > 15.1 nM and > 0.01 µg/mL in data set [2] (C#18 (null CD5)); 0.00057 µg/mL in data set [3]; 0.859 nM in data set [3] (read-out: IC50); 0.000358 µg/mL and 0.539 nM in [3] (setting [14]). For the same molecule, the IC50 in [4] is 0.000278 µg/mL; in data set [4] (read-out: IC50), 0.419 nM; in data set [5] (C#10 (high CD5)), 0.0099 µg/mL and 14.9 nM; in [5] (clone #10, CD5 expressing), 15.7 nM; in [6], 0.00091 µg/mL and 1.37 nM; in data set [7] (setting [12]) it was 0.00061 µg/mL to 0.0027 µg/mL and 0.92 nM to 4.1 nM. Besides, the 50% inhibitory concentration (IC50) in data set [7] (setting [13]) is 0.0012 µg/mL and 1.8 nM; in data set [8] (read-out: IC50), 1.38 nM; in data set [8] (setting [15]) it was 0.00093 µg/mL and 1.4 nM; in data set [9] (HER2−, 72 h, read-out: IC50), 0.00031 µg/mL and 0.468 nM; in data set [10] (HER2−, 72 h, read-out: IC50), 0.000415 µg/mL and 0.626 nM; in data set [11] (setting [12]), 0.00057 µg/mL to 0.0014 µg/mL and 0.86 nM to 2.1 nM. The 50% inhibitory concentration (IC50) in data set [11] (setting [13]) was 0.00097 µg/mL and 1.5 nM. Besides, in data set [1] (amine containing group), the “reduction of cytotoxic activity as compared to Compound 40” value was “around 1 log”. Also, the IC20 was 0.00677 µg/mL and 10.2 nM in data set [2] (C#18 (null CD5)); 0.00465 µg/mL and 7.01 nM in [5] (C#10 (high CD5)).
For `COC1=CC[C@@H]([C@@H](C)/C=C(C)/C=C\C=C/C(=O)N[C@H](C(=O)N/C=C\C[C@H](C/C=C(\C)Cl)OC(N)=O)C(C)(C)C)OC1=O` [Compound 40], the IC50 in data set [1] (setting [12]) is 7.5e-05 µg/mL to 0.00036 µg/mL and 0.12 nM to 0.59 nM; in data set [1] (setting [13]), 0.00016 µg/mL and 0.26 nM; in [2] (C#18 (null CD5)), 0.89 ng/mL; in data set [2] (clone #18, CD5 null), 1.47 nM; in data set [3], 8.65e-05 µg/mL and 0.00012 µg/mL; in data set [3] (read-out: IC50) it was 0.143 nM and 0.198 nM. For the same molecule, the IC50 is 7.9e-05 µg/mL in data set [4]; 0.131 nM in [4] (read-out: IC50); 0.495 ng/mL in [5] (C#10 (high CD5)); 0.817 nM in [5] (clone #10, CD5 expressing); 9.3e-05 µg/mL and 0.154 nM in data set [6]; 0.13 nM to 0.47 nM and 7.9e-05 µg/mL to 0.00028 µg/mL in [7] (setting [12]). For the same molecule, the 50% inhibitory concentration (IC50) in data set [7] (setting [13]) was 0.00015 µg/mL and 0.25 nM; in [8], 0.00013 µg/mL; in [8] (read-out: IC50), 0.142 nM and 0.215 nM; in [9], 0.000173 µg/mL and 0.284 nM; in data set [10], 0.000132 µg/mL and 0.218 nM; in data set [11] (setting [12]), 8.6e-05 µg/mL to 0.00011 µg/mL and 0.14 nM to 0.19 nM. Further, in data set [11] (setting [13]), the IC50 is 9.6e-05 µg/mL and 0.16 nM.

Source of the values: patent publication US12410148B2, “Antibody drug conjugates” (Pharma Mar, S.A., priority 2013, dated 2025).
